Results on 1 molecule are retold here after US20240360145A1, “PYRIMIDINE-2,4-DIAMINE DERIVATIVES AS WELL AS PREPARATION METHOD THEREFOR AND USE THEREOF” (LISEN THERAPEUTICS, INC., priority 2022, published 2024).

The test system of test [1] is OV-90 (ovarian cancer). The test is described as follows: Cell viability IC50 (CellTiter-Glo), OV-90. The class given is cell-based. To be noted: Homo sapiens, OV-90, 72 hours. As for the experimental part: (§1) The cancer cell lines were cultured to the logarithmic growth phase according to conventional culture methods, and the cells were inoculated into a 384-well plate at a density of 2,000 cells/well in a volume of 40 μl/well. The concentrations of added compounds were: […], 1.67 μM, 0.56 μM, 0.19 μM, 0.062 μM, 0.021 μM, 0.0069 μM, 0.0023 μM, 0.00076 μM, and 0 μM. After 72 hours, cell viability was detected using the CellTiter-Glo™ Detection Kit.

In test [2] the test system is LT015 primary cells. In words: Cell viability IC50 (CCK-8), primary cells LT015 from small cell lung cancer bronchoscopic biopsy. Type of test: cell-based. The note with it: LT015, CCK-8. As to the method:
(1) The tissue blocks obtained from the tumor patients were transferred from the preservation solution to the pre-cooled HBSS buffer containing antibiotics, and the tissue blocks were washed for three times with the pre-cooled HBSS buffer.
(2) Tissue was sheared on ice with sterile surgical instruments until no obvious tissue blocks are visible to the naked eye, the tissue fluid was collected into a 15 ml centrifuge tube, and this process takes about 5 to 10 minutes.
(3) Digestive enzymes (collagenase I, collagenase IV and neutral protease being mixed in a ratio of 1:1:1, a concentration of stock solution was 10 mg/ml, diluted with PBS buffer or HBSS buffer, and the use concentration was 1 mg/ml) were added to the centrifuge tube, and after mixing well by pipetting, the centrifuge tube was placed in a 37° C. constant temperature incubator for 1 to 2 hours.
(4) High-glucose medium was added to the centrifuge tube to stop digestion. After mixing well, the cell precipitate was collected by centrifugation, and resuspended with MBM medium (Advanced DMEM-F12+20 ng/ml bFGF+50 ng/ml EGF+1% ITS-X+2% B27+10 μMY-27632+1% PS). The cell suspension was placed in a Matrigel-coated 24-well plate and cultured for 5 to 7 days. When the cell density in the well plate reaches 80-90%, the cells were sub-cultured into a 6 cm cell culture dish, and when they grew to a density of 80% to 90%, the cells were cryopreserved for preservation.
(§2) (1) Primary cells from lung cancer pleural effusion within 5 generations were cultured to the logarithmic growth phase. When the confluence reached about 90%, the cells were digested with 0.25% trypsin, and complete culture medium was added to collect the cells. After centrifugation at room temperature, the supernatant was discarded, and the cell precipitate was resuspended with fresh complete culture medium. After counting, the cells were placed at room temperature for later use. The cells were inoculated into a 384-well plate at a density of 2000 cells/well with a volume of 40 μl/well. The wells at the outermost circle of the plate were not inoculated with cells, and instead, added with sterile water to reduce evaporation of the culture medium.
(§3) (2) After overnight culture of the cells, the medium was discarded, and a fresh medium containing different concentrations of compounds was added at 200 μl/well. The dilution method of the compound was as follows: first the compound with the highest concentration of 10 μM was prepared, and then the compound was diluted for 3 times in sequence. […] At the same time, a blank control group was set up, in which only an equal volume of culture medium was added without adding cells. Five replicate wells were set up for each group. The cells were placed in the incubator for further culture.
(§4) (3) After 72 hours, 8 μl of CCK-8 solution, which was double-diluted with 10 mM PBS, was added to each well, and the cells were shaken and placed in an incubator at 37° C. for further culture for 2 hours.
(§5) (4) The light absorbance value at 450 nm was read using a microplate reader, and the IC50 was calculated according to the absorbance value. The calculation method was the same as above.
(§6) (1) Sample information: PE039, PE052, and PE062 were all primary cell samples from pleural effusion of patients with small cell lung cancer, and LT015 was a primary cell sample from bronchoscopic biopsy of a patient with small cell lung cancer.
(§7) (2) CCK-8 detection was used to detect the IC50 values of different medicaments (compounds).

Test [3] has as its system NCI-H82 cells. In words: Cell viability IC50 (CCK-8), small cell lung cancer cell line H82. Type of test: cell-based. The note with it: Homo sapiens, NCI-H82; H82, CCK-8. As for the experimental part: (§8) Small cell lung cancer cell lines DMS114, NCI-H1688, NCI-H82, NCI-H146, and NCI-H446 cells were cultured in RPMI-1640 medium containing 10% fetal bovine serum and 1% penicillin-streptomycin. All the cells were cultured in a constant temperature incubator containing 5% CO2 at 37° C.
(§9) Small cell lung cancer is a highly heterogeneous malignant tumor, and its clinical treatment is mainly based on traditional chemotherapy (mainly platinum medicaments and etoposide). In order to study the anti-tumor activity of the compounds of the present disclosure in small cell lung cancer, the CCK-8 method was used to investigate the cell viability IC50 of compound 8 for five small cell lung cancer cell lines.

Test [4] concerns NCI-H1975 cells. The test is described as follows: Cell viability IC50 (MTT), Gefitinib-resistant NCI-H1975 cells. The note with it: Homo sapiens, NCI-H1975, 72 h, read-out: cell viability IC50.
Experimental: 1% sodium pyruvate was additionally added when culturing NCI-H1975 cells. All the cells were cultured in a constant temperature incubator containing 5% CO2 at 37° C.
(1) The cells were cultured to the logarithmic growth phase. […] After centrifugation at room temperature, the supernatant was discarded, and the cell precipitate was resuspended with fresh complete medium. After counting, the cells were placed at room temperature for later use.
(2) The cells were inoculated into a 96-well plate at a density of 4,000 cells/well with a volume of 100 μl/well. The wells at the outermost circle of the plate were not inoculated with cells, and instead, added with sterile water to reduce evaporation of the culture medium.
(3) After overnight culture of the cells, the medium was discarded, and a fresh medium containing different concentrations of compounds was added at 200 μl/well. The dilution method of the compound was as follows: first the compound with the highest concentration of 10 μM was prepared, and then the compound was diluted for 3 times in sequence. […] At the same time, a blank control group was set up, in which only an equal volume of culture medium was added without adding cells. Six replicate wells were set up for each group. The cells were placed in the incubator for further culture.
(4) After 72 hours, 20 μl of MTT solution (5 mg/ml) sterilized by filtration through a 0.22 m filter membrane was added to each well, and the cells were cultured in an incubator at 37° C. for another 4 hours.
(6) IC50 of the compounds for different cells was calculated based on the light absorption value of each group. Specifically, the absorbance value under treatment with different concentrations of compounds was first subtracted from the absorbance value of the blank well, and then the absorbance value of the 0 μM group was taken as 100% to calculate the cell survival rate after treatment with different concentrations of compounds. That is, survival rate=((ODexperimental well−ODblank control)/(ODnegative control−ODblank control))×100%. IC50 values were calculated based on the survival rate and concentration of the compound.
Test [5] has as its system HT29 (colon cancer). The test is described as follows: Cell viability IC50 (CellTiter-Glo), HT29. The note with it: Homo sapiens, HT-29, HT29, 72 hours. Type of test: cell-based. As to the method: as §1
Test [6] concerns HCT116 (colon cancer). The test is described as follows: Cell viability IC50 (CellTiter-Glo), HCT116. The class given is cell-based. To be noted: Homo sapiens, HCT-116, HCT116, 72 hours. As to the method: as §1
Test [7] has as its system NCI-H1688 cells. The test is described as follows: Cell viability IC50 (CCK-8), small cell lung cancer cell line H1688. The class given is cell-based. The note with it: NCI-H1688; H1688, CCK-8. As for the experimental part:
as §8, §9

Test [8] deals with MiaPaca-2 (pancreatic cancer). In words: Cell viability IC50 (CellTiter-Glo), MiaPaca-2. Type of test: cell-based. To be noted: Homo sapiens, MIA PaCa-2, MiaPaca-2, 72 hours. As to the method:
as §1

Test [9] has as its system PE052 primary cells. The test is described as follows: Cell viability IC50 (CCK-8), primary cells PE052 from small cell lung cancer pleural effusion. The class given is cell-based. To be noted: PE052, CCK-8. As to the method:
(1) The pleural effusion was poured into a 15 mL or 50 mL of sterilized centrifuge tube for centrifugation. Centrifugation conditions: 800 to 1000 rpm, 5 min.
(2) The precipitate was resuspended and washed for 2 to 3 times with PBS.
(3) The cell precipitate was resuspended with complete culture medium (α-MEM medium containing 10% fetal bovine serum and 2% penicillin-streptomycin), and the flocculent matter in the pleural effusion was removed using a sterilized cell sieve.
(4) The red blood cells in the pleural effusion were removed with lymphocyte separation fluid, and the tumor cells and lymphocyte components were collected. The number of tumor cells was observed under a microscope, and the cells were inoculated.
(5) After 24 hours, the supernatant was discarded, and fresh culture medium was added for further culture.
(6) The cell growth status was observed, and it was determined based on the cell status whether the medium was required to be continuously changed to remove blood cells. When the cells grew to a density of 80% to 90%, the cells were preserved.
as §2, with “When the confluence reached about 90%, the cells were digested with 0.25% trypsin, and complete culture medium was added to collect the cells.” left out
as §3, §4, §5, §6, §7

Turning to `CN1CC2CCC(C1)N2Cc1ccc(Nc2ncc(Cl)c(Nc3ccccc3S(=O)(=O)N(C)C)n2)cc1` [Compound 8, 2-((5-chloro-2-((4-((3-methyl-3,8-diazabicyclo[3.2.1]octan-8-yl)methyl)phenyl)amino)pyrimidin-4-yl)amino)-N,N-dimethylbenzenesulfonamide], the IC50 in [1] amounted to 103 nM; in [2] it was 6.11 nM; in test [3], 5.15 nM; in [4] it was 55.2 nM; in test [5], 190 nM; in test [6], 9 nM. The IC50 in test [7] came out at 5.01 nM; in test [8], 13.2 nM; in test [9], 59.9 nM.
